PubChem BioAssay AID1963966 (Molecular Pharmacology Branch, DTP, NCI, 2024)
pIC50: −log10 of the molar value.

Tested on: 935938-334-R-J1-PDC spheroids with HUVEC/MSC, viability
Experiment: Anticancer human tumor 935938-334-R-J1-PDC patient-derived small intestine adenocarcinoma cell line growth inhibition [PI3K]
Conditions: for pIC50: curve of first compound; for viability, T/C: stronger effect = lower value
Method in brief: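 Spheroid viability read-out. Co-cultures contained the tumor line plus HUVEC and human MSCs. Each agent was paired with a PI3K inhibitor (inavolisib, alpelisib, duvelisib, copanlisib) across half-log dilutions starting at clinical Cmax, or at 10 microM when Cmax was unknown.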

[1] = second compound 0.0316 µM, first compound 0.0316 µM
[2] = second compound 0.0316 µM, first compound 0.1 µM
[3] = second compound 0.0316 µM, first compound 0.316 µM
[4] = second compound 0.0316 µM, first compound 1 µM
[5] = second compound 0.0316 µM, first compound 3.16 µM
[6] = second compound 0.0316 µM, first compound 10 µM
[7] = second compound 0.1 µM, first compound 0.0316 µM
[8] = second compound 0.1 µM, first compound 0.1 µM
[9] = second compound 0.1 µM, first compound 0.316 µM
[10] = second compound 0.1 µM, first compound 1 µM
[11] = second compound 0.1 µM, first compound 3.16 µM
[12] = second compound 0.1 µM, first compound 10 µM
[13] = second compound 0.316 µM, first compound 0.0316 µM
[14] = second compound 0.316 µM, first compound 0.1 µM
[15] = second compound 0.316 µM, first compound 0.316 µM
[16] = second compound 0.316 µM, first compound 1 µM
[17] = second compound 0.316 µM, first compound 3.16 µM
[18] = second compound 0.316 µM, first compound 10 µM
[19] = second compound 1 µM, first compound 0.0316 µM
[20] = second compound 1 µM, first compound 0.1 µM
[21] = second compound 1 µM, first compound 0.316 µM
[22] = second compound 1 µM, first compound 1 µM
[23] = second compound 1 µM, first compound 3.16 µM
[24] = second compound 1 µM, first compound 10 µM
[25] = second compound 3.16 µM, first compound 0.0316 µM
[26] = second compound 3.16 µM, first compound 0.1 µM
[27] = second compound 3.16 µM, first compound 0.316 µM
[28] = second compound 3.16 µM, first compound 1 µM
[29] = second compound 3.16 µM, first compound 3.16 µM
[30] = second compound 3.16 µM, first compound 10 µM
[31] = second compound 10 µM, first compound 0.0316 µM
[32] = second compound 10 µM, first compound 0.1 µM
[33] = second compound 10 µM, first compound 0.316 µM
[34] = second compound 10 µM, first compound 1 µM
[35] = second compound 10 µM, first compound 3.16 µM
[36] = second compound 10 µM, first compound 10 µM
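Further: compound exposure lasted seven days before viability was read.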
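Wherever viability, T/C is given: percent of vehicle DMSO treated spheroid viability so 100% = untreated.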

## C#Cc1c(F)ccc2cc(O)cc(-c3ncc4c(N5CC6CCC(C5)N6)nc(OCC56CCCN5CC(F)C6)nc4c3F)c12 (stereo not drawn) + CC(Nc1ncnc2nc[nH]c12)c1cc2cccc(Cl)c2c(=O)n1-c1ccccc1
Second compound 0.0316 µM
  pIC50: 5.34
Second compound 0.1 µM
  pIC50: 5.50
Second compound 0.316 µM
  pIC50: 5.40
Second compound 1 µM
  pIC50: 5.55
Second compound 3.16 µM
  pIC50: 5.65
Second compound 10 µM
  pIC50: 6.18
[1]
  viability, T/C: 83.8%
[2]
  viability, T/C: 82.3%
[3]
  viability, T/C: 83.2%
[4]
  viability, T/C: 65.5%
[5]
  viability, T/C: 56.8%
[6]
  viability, T/C: 39%
[7]
  viability, T/C: 99.4%
[8]
  viability, T/C: 97%
[9]
  viability, T/C: 91.9%
[10]
  viability, T/C: 65.5%
[11]
  viability, T/C: 53.3%
[12]
  viability, T/C: 42.9%
[13]
  viability, T/C: 88.8%
[14]
  viability, T/C: 103%
[15]
  viability, T/C: 89.3%
[16]
  viability, T/C: 74.1%
[17]
  viability, T/C: 54.3%
[18]
  viability, T/C: 37.8%
[19]
  viability, T/C: 76.7%
[20]
  viability, T/C: 73.2%
[21]
  viability, T/C: 60.4%
[22]
  viability, T/C: 52.4%
[23]
  viability, T/C: 57.4%
[24]
  viability, T/C: 39.1%
[25]
  viability, T/C: 82.8%
[26]
  viability, T/C: 82.8%
[27]
  viability, T/C: 110%
[28]
  viability, T/C: 69.8%
[29]
  viability, T/C: 44.5%
[30]
  viability, T/C: 30.3%
[31]
  viability, T/C: 70%
[32]
  viability, T/C: 73.8%
[33]
  viability, T/C: 60.4%
[34]
  viability, T/C: 44.2%
[35]
  viability, T/C: 36.2%
[36]
  viability, T/C: 34%

## CC(Cn1ccc(-c2ccc(C#N)c(Cl)c2)n1)NC(=O)c1cc(C(C)O)[nH]n1 (stereo not drawn) + CC(Nc1ncnc2nc[nH]c12)c1cc2cccc(Cl)c2c(=O)n1-c1ccccc1
Second compound 0.0316 µM
  pIC50: < 5.00
Second compound 0.1 µM
  pIC50: < 5.00
Second compound 0.316 µM
  pIC50: < 5.00
Second compound 1 µM
  pIC50: < 5.00
Second compound 3.16 µM
  pIC50: < 5.00
Second compound 10 µM
  pIC50: < 5.00
[1]
  viability, T/C: 98.6%
[2]
  viability, T/C: 93.4%
[3]
  viability, T/C: 97.3%
[4]
  viability, T/C: 111%
[5]
  viability, T/C: 117%
[6]
  viability, T/C: 108%
[7]
  viability, T/C: 124%
[8]
  viability, T/C: 85.2%
[9]
  viability, T/C: 88.7%
[10]
  viability, T/C: 99%
[11]
  viability, T/C: 93.9%
[12]
  viability, T/C: 113%
[13]
  viability, T/C: 94.3%
[14]
  viability, T/C: 116%
[15]
  viability, T/C: 116%
[16]
  viability, T/C: 98.2%
[17]
  viability, T/C: 74.5%
[18]
  viability, T/C: 102%
[19]
  viability, T/C: 110%
[20]
  viability, T/C: 105%
[21]
  viability, T/C: 128%
[22]
  viability, T/C: 102%
[23]
  viability, T/C: 103%
[24]
  viability, T/C: 96%
[25]
  viability, T/C: 94.5%
[26]
  viability, T/C: 77.3%
[27]
  viability, T/C: 105%
[28]
  viability, T/C: 91.2%
[29]
  viability, T/C: 94.6%
[30]
  viability, T/C: 104%
[31]
  viability, T/C: 79.7%
[32]
  viability, T/C: 69.8%
[33]
  viability, T/C: 82%
[34]
  viability, T/C: 68.4%
[35]
  viability, T/C: 87.6%
[36]
  viability, T/C: 97.8%

## CC1(C)CCC(Nc2ncc(C(F)(F)F)c(-c3c[nH]c4c(P(C)(C)=O)c(C#N)ccc34)n2)CN1 (stereo not drawn) + CC(Nc1ncnc2nc[nH]c12)c1cc2cccc(Cl)c2c(=O)n1-c1ccccc1
Second compound 0.0316 µM
  pIC50: > 7.50
Second compound 0.1 µM
  pIC50: > 7.50
Second compound 0.316 µM
  pIC50: > 7.50
Second compound 1 µM
  pIC50: > 7.50
Second compound 3.16 µM
  pIC50: > 7.50
Second compound 10 µM
  pIC50: > 7.50
[1]
  viability, T/C: 43%
[2]
  viability, T/C: 46.4%
[3]
  viability, T/C: 31.9%
[4]
  viability, T/C: 35.3%
[5]
  viability, T/C: 34.8%
[6]
  viability, T/C: 5.59%
[7]
  viability, T/C: 42.3%
[8]
  viability, T/C: 36.5%
[9]
  viability, T/C: 32.7%
[10]
  viability, T/C: 36.9%
[11]
  viability, T/C: 35.1%
[12]
  viability, T/C: 6.35%
[13]
  viability, T/C: 38%
[14]
  viability, T/C: 37.1%
[15]
  viability, T/C: 41.2%
[16]
  viability, T/C: 36.5%
[17]
  viability, T/C: 26.8%
[18]
  viability, T/C: 6.84%
[19]
  viability, T/C: 42%
[20]
  viability, T/C: 35.5%
[21]
  viability, T/C: 41%
[22]
  viability, T/C: 34.8%
[23]
  viability, T/C: 33.2%
[24]
  viability, T/C: 7.47%
[25]
  viability, T/C: 30.8%
[26]
  viability, T/C: 38.6%
[27]
  viability, T/C: 41.8%
[28]
  viability, T/C: 36.2%
[29]
  viability, T/C: 32.6%
[30]
  viability, T/C: 5.17%
[31]
  viability, T/C: 37.8%
[32]
  viability, T/C: 37%
[33]
  viability, T/C: 35.9%
[34]
  viability, T/C: 35.1%
[35]
  viability, T/C: 28.5%
[36]
  viability, T/C: 5.58%

## Cn1cnc2c(F)c(Nc3ccc(Br)cc3Cl)c(C(=O)NOCCO)cc21 + COc1c(OCCCN2CCOCC2)ccc2c3n(c(=NC(=O)c4cnc(N)nc4)nc12)CCN3
Second compound 0.00316 µM
  pIC50: 7.22
Second compound 0.01 µM
  pIC50: 7.25
Second compound 0.0316 µM
  pIC50: 7.39
Second compound 0.1 µM
  pIC50: > 8.02
Second compound 0.316 µM
  pIC50: > 8.02
Second compound 1 µM
  pIC50: > 8.02
Second compound 0.00316 µM, first compound 0.00949 µM
  viability, T/C: 70.9%
Second compound 0.00316 µM, first compound 0.03 µM
  viability, T/C: 55.8%
Second compound 0.00316 µM, first compound 0.0949 µM
  viability, T/C: 49.6%
Second compound 0.00316 µM, first compound 0.3 µM
  viability, T/C: 30.8%
Second compound 0.00316 µM, first compound 0.949 µM
  viability, T/C: 30.9%
Second compound 0.00316 µM, first compound 3 µM
  viability, T/C: 23.4%
Second compound 0.01 µM, first compound 0.00949 µM
  viability, T/C: 76.8%
Second compound 0.01 µM, first compound 0.03 µM
  viability, T/C: 63.6%
Second compound 0.01 µM, first compound 0.0949 µM
  viability, T/C: 36.4%
Second compound 0.01 µM, first compound 0.3 µM
  viability, T/C: 32.6%
Second compound 0.01 µM, first compound 0.949 µM
  viability, T/C: 22.6%
Second compound 0.01 µM, first compound 3 µM
  viability, T/C: 18.4%
Second compound 0.0316 µM, first compound 0.00949 µM
  viability, T/C: 64.5%
Second compound 0.0316 µM, first compound 0.03 µM
  viability, T/C: 51.7%
Second compound 0.0316 µM, first compound 0.0949 µM
  viability, T/C: 42.4%
Second compound 0.0316 µM, first compound 0.3 µM
  viability, T/C: 27%
Second compound 0.0316 µM, first compound 0.949 µM
  viability, T/C: 22.2%
Second compound 0.0316 µM, first compound 3 µM
  viability, T/C: 20.3%
Second compound 0.1 µM, first compound 0.00949 µM
  viability, T/C: 31.4%
Second compound 0.1 µM, first compound 0.03 µM
  viability, T/C: 29.9%
Second compound 0.1 µM, first compound 0.0949 µM
  viability, T/C: 20.9%
Second compound 0.1 µM, first compound 0.3 µM
  viability, T/C: 16.2%
Second compound 0.1 µM, first compound 0.949 µM
  viability, T/C: 17.3%
Second compound 0.1 µM, first compound 3 µM
  viability, T/C: 14.1%
Second compound 0.316 µM, first compound 0.00949 µM
  viability, T/C: 26.8%
Second compound 0.316 µM, first compound 0.03 µM
  viability, T/C: 21.4%
Second compound 0.316 µM, first compound 0.0949 µM
  viability, T/C: 19.4%
Second compound 0.316 µM, first compound 0.3 µM
  viability, T/C: 17.7%
Second compound 0.316 µM, first compound 0.949 µM
  viability, T/C: 18.9%
Second compound 0.316 µM, first compound 3 µM
  viability, T/C: 15%
Second compound 1 µM, first compound 0.00949 µM
  viability, T/C: 29%
Second compound 1 µM, first compound 0.03 µM
  viability, T/C: 24.4%
Second compound 1 µM, first compound 0.0949 µM
  viability, T/C: 21.4%
Second compound 1 µM, first compound 0.3 µM
  viability, T/C: 21.3%
Second compound 1 µM, first compound 0.949 µM
  viability, T/C: 17.9%
Second compound 1 µM, first compound 3 µM
  viability, T/C: 14%
